Measurements: ChEMBL document CHEMBL3885881, “DrugMatrix”

Species: Rattus norvegicus
Experiment: DrugMatrix - Regimen: Daily Repeat
Assay type: toxicity, organism-based, Sprague-Dawley
Set-up: regimen Daily Repeat, gender Male, age 6-8 weeks
Conditions: in vivo, po, route oral GAVAGE, vehicle 100 % WATER; for ABSOLUTE BASOPHIL / ABSOLUTE EOSINOPHIL / ABSOLUTE LYMPHOCYTE / ABSOLUTE MONOCYTE / ABSOLUTE SEGMENTED NEUTROPHIL / BASOPHIL / EOSINOPHIL / ERYTHROCYTE COUNT / HEMATOCRIT / HEMOGLOBIN / LEUKOCYTE COUNT / LYMPHOCYTE / MEAN CORPUSCULAR HEMOGLOBIN / MEAN CORPUSCULAR HEMOGLOBIN CONCENTRATION / MEAN CORPUSCULAR VOLUME / MONOCYTE / NEUTROPHIL / NUCLEATED RED BLOOD CELLS / PLATELET COUNT: tissue Blood; for ALANINE AMINOTRANSFERASE / ALBUMIN / ALKALINE PHOSPHATASE / ASPARTATE AMINOTRANSFERASE / BLOOD UREA NITROGEN / CARBON DIOXIDE / CHLORIDE / CHOLESTEROL / CREATINE PHOSPHOKINASE / CREATININE / GLUCOSE / LACTATE DEHYDROGENASE / LIPASE / PHOSPHORUS / POTASSIUM / SODIUM / TOTAL BILIRUBIN / TOTAL PROTEIN / URIC ACID: tissue Plasma
[1] = 0 mg/kg, 72 h, dose level Control, time 3 day
[2] = 0 mg/kg, 120 h, dose level Control, time 5 day
[3] = 15 mg/kg, 72 h, dose level Low, time 3 day
[4] = 15 mg/kg, 120 h, dose level Low, time 5 day

COC(=O)C1=C(C)NC(C)=C(C(=O)OCC(C)C)C1c1ccccc1[N+](=O)[O-] (configuration not stated) [NISOLDIPINE]
ABSOLUTE BASOPHIL [1]: 0 CELLS/uL
ABSOLUTE EOSINOPHIL [1]: 0 CELLS/uL
ABSOLUTE LYMPHOCYTE [1]: 7802.17 CELLS/uL
ABSOLUTE MONOCYTE [1]: 13.5 CELLS/uL
ABSOLUTE SEGMENTED NEUTROPHIL [1]: 617.67 CELLS/uL
BASOPHIL [1]: 0%
EOSINOPHIL [1]: 0%
ERYTHROCYTE COUNT [1]: 5.35 x10E6/uL
HEMATOCRIT [1]: 33.02%
HEMOGLOBIN [1]: 12.88 G/DL
LEUKOCYTE COUNT [1]: 8.43 x10E3/uL
LYMPHOCYTE [1]: 92.67%
MEAN CORPUSCULAR HEMOGLOBIN [1]: 24.12 pg
MEAN CORPUSCULAR HEMOGLOBIN CONCENTRATION [1]: 39.03 G/DL
MEAN CORPUSCULAR VOLUME [1]: 61.8 fL
MONOCYTE [1]: 0.17%
NEUTROPHIL [1]: 7.17%
NUCLEATED RED BLOOD CELLS [1]: 0 /100WBC
PLATELET COUNT [1]: 1124.83 x10E3/uL
ALANINE AMINOTRANSFERASE [1]: 54.17 u/L
ALBUMIN [1]: 4.07 G/DL
ALKALINE PHOSPHATASE [1]: 383.83 u/L
ASPARTATE AMINOTRANSFERASE [1]: 82.17 u/L
BLOOD UREA NITROGEN [1]: 13.67 mg/dL
CARBON DIOXIDE [1]: 31 mmol/L
CHLORIDE [1]: 100.83 MEQ/L
CHOLESTEROL [1]: 65.17 mg/dL
CREATINE PHOSPHOKINASE [1]: 228.33 u/L
CREATININE [1]: 0.12 mg/dL
GLUCOSE [1]: 148 mg/dL
LACTATE DEHYDROGENASE [1]: 97.83 u/L
LIPASE [1]: 9.17 u/L
PHOSPHORUS [1]: 9.75 mg/dL
POTASSIUM [1]: 5.85 MEQ/L
SODIUM [1]: 147.02 MEQ/L
TOTAL BILIRUBIN [1]: 0.18 mg/dL
TOTAL PROTEIN [1]: 6.1 G/DL
URIC ACID [1]: 0.5 mg/dL
ABSOLUTE BASOPHIL [2]: 0 CELLS/uL
ABSOLUTE EOSINOPHIL [2]: 0 CELLS/uL
ABSOLUTE LYMPHOCYTE [2]: 10538 CELLS/uL
ABSOLUTE MONOCYTE [2]: 15.83 CELLS/uL
ABSOLUTE SEGMENTED NEUTROPHIL [2]: 762.83 CELLS/uL
BASOPHIL [2]: 0%
EOSINOPHIL [2]: 0%
ERYTHROCYTE COUNT [2]: 5.49 x10E6/uL
HEMATOCRIT [2]: 34.63%
HEMOGLOBIN [2]: 13.72 G/DL
LEUKOCYTE COUNT [2]: 11.32 x10E3/uL
LYMPHOCYTE [2]: 92.67%
MEAN CORPUSCULAR HEMOGLOBIN [2]: 24.97 pg
MEAN CORPUSCULAR HEMOGLOBIN CONCENTRATION [2]: 39.57 G/DL
MEAN CORPUSCULAR VOLUME [2]: 63.05 fL
MONOCYTE [2]: 0.17%
NEUTROPHIL [2]: 7.17%
NUCLEATED RED BLOOD CELLS [2]: 0.17 /100WBC
PLATELET COUNT [2]: 802 x10E3/uL
ALANINE AMINOTRANSFERASE [2]: 50.5 u/L
ALBUMIN [2]: 4.07 G/DL
ALKALINE PHOSPHATASE [2]: 336.83 u/L
ASPARTATE AMINOTRANSFERASE [2]: 81 u/L
BLOOD UREA NITROGEN [2]: 14.17 mg/dL
CARBON DIOXIDE [2]: 32 mmol/L
CHLORIDE [2]: 98.33 MEQ/L
CHOLESTEROL [2]: 69.17 mg/dL
CREATINE PHOSPHOKINASE [2]: 253.33 u/L
CREATININE [2]: 0.13 mg/dL
GLUCOSE [2]: 153.67 mg/dL
LACTATE DEHYDROGENASE [2]: 157 u/L
LIPASE [2]: 9 u/L
PHOSPHORUS [2]: 10.78 mg/dL
POTASSIUM [2]: 6.11 MEQ/L
SODIUM [2]: 144.57 MEQ/L
TOTAL BILIRUBIN [2]: 0.15 mg/dL
TOTAL PROTEIN [2]: 6.05 G/DL
URIC ACID [2]: 0.73 mg/dL
ABSOLUTE BASOPHIL [3]: 0 CELLS/uL
ABSOLUTE EOSINOPHIL [3]: 0 CELLS/uL
ABSOLUTE LYMPHOCYTE [3]: 6241.33 CELLS/uL
ABSOLUTE MONOCYTE [3]: 67 CELLS/uL
ABSOLUTE SEGMENTED NEUTROPHIL [3]: 425 CELLS/uL
BASOPHIL [3]: 0%
EOSINOPHIL [3]: 0%
ERYTHROCYTE COUNT [3]: 5.19 x10E6/uL
HEMATOCRIT [3]: 32.73%
HEMOGLOBIN [3]: 12.7 G/DL
LEUKOCYTE COUNT [3]: 6.73 x10E3/uL
LYMPHOCYTE [3]: 92.67%
MEAN CORPUSCULAR HEMOGLOBIN [3]: 24.5 pg
MEAN CORPUSCULAR HEMOGLOBIN CONCENTRATION [3]: 38.83 G/DL
MEAN CORPUSCULAR VOLUME [3]: 63.1 fL
MONOCYTE [3]: 1%
NEUTROPHIL [3]: 6.33%
NUCLEATED RED BLOOD CELLS [3]: 0 /100WBC
PLATELET COUNT [3]: 1002.33 x10E3/uL
ALANINE AMINOTRANSFERASE [3]: 56 u/L
ALBUMIN [3]: 4.03 G/DL
ALKALINE PHOSPHATASE [3]: 297.33 u/L
ASPARTATE AMINOTRANSFERASE [3]: 80.67 u/L
BLOOD UREA NITROGEN [3]: 11.67 mg/dL
CARBON DIOXIDE [3]: 30.67 mmol/L
CHLORIDE [3]: 100 MEQ/L
CHOLESTEROL [3]: 89.67 mg/dL
CREATINE PHOSPHOKINASE [3]: 318.67 u/L
CREATININE [3]: 0.11 mg/dL
GLUCOSE [3]: 147.67 mg/dL
LACTATE DEHYDROGENASE [3]: 95.33 u/L
LIPASE [3]: 13 u/L
PHOSPHORUS [3]: 9.1 mg/dL
POTASSIUM [3]: 5.7 MEQ/L
SODIUM [3]: 145.35 MEQ/L
TOTAL BILIRUBIN [3]: 0.1 mg/dL
TOTAL PROTEIN [3]: 5.77 G/DL
URIC ACID [3]: 0.47 mg/dL
ABSOLUTE BASOPHIL [4]: 0 CELLS/uL
ABSOLUTE EOSINOPHIL [4]: 0 CELLS/uL
ABSOLUTE LYMPHOCYTE [4]: 9912 CELLS/uL
ABSOLUTE MONOCYTE [4]: 68 CELLS/uL
ABSOLUTE SEGMENTED NEUTROPHIL [4]: 453.33 CELLS/uL
BASOPHIL [4]: 0%
EOSINOPHIL [4]: 0%
ERYTHROCYTE COUNT [4]: 5.6 x10E6/uL
HEMATOCRIT [4]: 34.7%
HEMOGLOBIN [4]: 13.63 G/DL
LEUKOCYTE COUNT [4]: 10.43 x10E3/uL
LYMPHOCYTE [4]: 95.33%
MEAN CORPUSCULAR HEMOGLOBIN [4]: 24.43 pg
MEAN CORPUSCULAR HEMOGLOBIN CONCENTRATION [4]: 39.3 G/DL
MEAN CORPUSCULAR VOLUME [4]: 62.07 fL
MONOCYTE [4]: 0.67%
NEUTROPHIL [4]: 4%
NUCLEATED RED BLOOD CELLS [4]: 0 /100WBC
PLATELET COUNT [4]: 1086 x10E3/uL
ALANINE AMINOTRANSFERASE [4]: 51 u/L
ALBUMIN [4]: 4.13 G/DL
ALKALINE PHOSPHATASE [4]: 346 u/L
ASPARTATE AMINOTRANSFERASE [4]: 74 u/L
BLOOD UREA NITROGEN [4]: 13.67 mg/dL
CARBON DIOXIDE [4]: 36.67 mmol/L
CHLORIDE [4]: 98.67 MEQ/L
CHOLESTEROL [4]: 67.33 mg/dL
CREATINE PHOSPHOKINASE [4]: 223.67 u/L
CREATININE [4]: 0.13 mg/dL
GLUCOSE [4]: 139.67 mg/dL
LACTATE DEHYDROGENASE [4]: 96.33 u/L
LIPASE [4]: 9 u/L
PHOSPHORUS [4]: 9.5 mg/dL
POTASSIUM [4]: 6.07 MEQ/L
SODIUM [4]: 144.53 MEQ/L
TOTAL BILIRUBIN [4]: 0.17 mg/dL
TOTAL PROTEIN [4]: 6.17 G/DL
URIC ACID [4]: 0.67 mg/dL
